Here are results for two molecules from patent publication US20260248768A1, “MYC PROGRAM AS A MARKER OF RESPONSE TO ENZALUTAMIDE IN PROSTATE CANCER” (Rutgers, The State University of New Jersey, priority 2022, published 2026).

Holding throughout (type): cell-based
The test system of one data set is C42B cells. Briefly: Dose-response cell viability assay in C42B cells. To be noted: both Enzalutamide-naïve and Enzalutamide-resistant conditions, dose-dependent manner (FIG. 13A). On the procedure: (§1) FIGS. 13A-13F show MYC targeting is beneficial for patients in Enzalutamide-resistant conditions. (FIG. 13A) Drug sensitivity curves of Enzalutamide-naïve, or Enzalutamide-resistant (EnzaRes) C42B cells treated with MYCi975. (FIG. 13B) Colony formation assay using Enzalutamide-resistant (EnzaRes) C42B cells in Intact (treated with DMSO), treated with Enzalutamide (10 μM), MYCi975 (2 μM), or a combination of Enzalutamide+MYCi975 (10 μM+2 μM). Cells were grown in the presence of respective drugs. Representative images are shown. P-value was estimated using a one-tailed Welch t-test. (FIG. 13C) Boyden chamber-based in vitro migration assay using Enzalutamide-resistant (EnzaRes) C42B cells in Intact (treated with DMSO), treated with Enzalutamide (10 μM), MYCi975 (2 μM), or a combination of Enzalutamide+MYCi975 (10 μM+2 μM). Bars represent the quantification of Crystal Violet trapped by migrated cells. P-value was estimated using a one-tailed Welch t-test. (FIG. 13D) Expression of NME2 in Intact and Enzalutamide-resistant (EnzaRes) C42B cells, using the qRT-PCR. P-value was estimated using the one-tailed Welch t-test. […] Bars represent the quantification of Crystal Violet trapped by migrated cells. * p-value <0.05, ** p-value≤0.01, *** p-value≤0.001 […]

In data set [1] the test system is C42B-EnzaRes cells. The experiment in a line: Boyden chamber-based in vitro migration assay. The settings on record: MYCi975 2 μM, Enzalutamide 10 μM, vs Intact (DMSO). On the procedure: FIGS. 13A-13F show MYC targeting is beneficial for patients in Enzalutamide-resistant conditions. (FIG. 13A) Drug sensitivity curves of Enzalutamide-naïve, or Enzalutamide-resistant (EnzaRes) C42B cells treated with MYCi975. (FIG. 13B) Colony formation assay using Enzalutamide-resistant (EnzaRes) C42B cells in Intact (treated with DMSO), treated with Enzalutamide (10 μM), MYCi975 (2 μM), or a combination of Enzalutamide+MYCi975 (10 μM+2 μM). Cells were grown in the presence of respective drugs. Representative images are shown. P-value was estimated using a one-tailed Welch t-test. (FIG. 13C) Boyden chamber-based in vitro migration assay using Enzalutamide-resistant (EnzaRes) C42B cells in Intact (treated with DMSO), treated with Enzalutamide (10 μM), MYCi975 (2 μM), or a combination of Enzalutamide+MYCi975 (10 μM+2 μM). Bars represent the quantification of Crystal Violet trapped by migrated cells. P-value was estimated using a one-tailed Welch t-test. (FIG. 13D) Expression of NME2 in Intact and Enzalutamide-resistant (EnzaRes) C42B cells, using the qRT-PCR. P-value was estimated using the one-tailed Welch t-test. […] Bars represent the quantification of Crystal Violet trapped by migrated cells. * p-value <0.05, ** p-value≤0.01, *** p-value≤0.001

The subject of a further data set is LNCaP-EnzaRes cells. The experiment in a line: Colony formation assay, Enzalutamide-resistant LNCaP cells. The settings on record: MYCi975 2 μM, Enzalutamide 10 μM, compared to Intact (DMSO). The method, then:
(§2) FIGS. 14A and 14B show MYC inhibition reduces viability and colony formation in Enzalutamide resistant conditions. (FIG. 14A) Drug response curves of Enzalutamide naïve LNCaP or Enzalutamide-resistant LNCaP cells treated with Enzalutamide and/or MYC-i975. (FIG. 14B) Colony formation assay using Enzalutamide-resistant LNCaP cells t (LNCaP-Enza-Res) in intact (treated with DMSO), treated with enzalutamide (10 μM), MYC-i975 (2 μM), or a combination of Enzalutamide+MYC-i975 (10 μM+2 μM). Cells were grown in the presence of respective drugs. Bars represent quantification of Crystal Violet trapped by migrated cells. P-value is estimated utilizing one-tailed Welch t-test. * p<0.05, *** p≤0.001.
(§3) Generation of Enzalutamide-resistant cell lines: LNCaP (clone FDG) and C42B cells were purchased from ATCC and were grown in RPMI1640 media (GIBCO #11875093) supplemented with 10% Fetal Bovine Serum (FBS, Corning Cat #35-011-CV) and maintained at […] in and 5% CO2. Enzalutamide powder was purchased from Sellekchem (cat #S1250) and re-suspended in DMSO. Cells were plated in 6 well plates and treated either with DMSO, or with Enzalutamide (20 μM), refreshed every 4 days for up to 3 months until the resistance emerged. RNA from cells was extracted on indicated days using the methods described below. […]

Data set [2] has as its system C42B-EnzaRes cells. Briefly: Colony formation assay, Enzalutamide-resistant C42B cells. To be noted: MYCi975 2 μM, Enzalutamide 10 μM, compared to Intact (DMSO). The method, then: as §1
The subject of a further data set is LNCaP cells. The experiment in a line: Dose-response cell viability assay in LNCaP cells. To be noted: both Enzalutamide-naïve and Enzalutamide-resistant conditions, dose-dependent manner (FIG. 14A). On the procedure: as §2, §3
The test system of the next data set is MYC. The experiment in a line: Doxycycline-inducible shRNA knockdown of NME2, MYC expression by Western blot. To be noted: C4-2B cells; 0-2000 ng/mL doxycycline for 96 hours; Western blot (FIG. 15). On the procedure: Finally, C4-2B cells expressing doxycycline-inducible shRNA targeting NME2 were generated using the targeting sequence […] (SEQ ID NO: 9). Cells were treated with 0-2000 ng/mL doxycycline for 96 hours and NME2 and MYC expression were evaluated by Western blot.
(In western blotting, separated proteins are transferred to a membrane and probed.)

On to `Cn1nc(C(F)(F)F)cc1-c1ccc(OCc2ccc(Cl)cc2)c(-c2ccc(Cl)c(C(F)(F)F)c2)c1O` [MYCi975], for which the cell viability entry with C42B cells and in the data set with LNCaP cells was “striking reduction of the cell viability” throughout. In addition, in the data set on C42B-EnzaRes cells [1], the cell migration entry is reported as “significant reduction in cell migration”. For the same molecule, the colony formation entry in the data set on LNCaP-EnzaRes cells and with C42B-EnzaRes cells [2] was “reduced the colony formation” each time.

Take “shRNA targeting NME2: doxycycline-inducible shRNA targeting NME2, targeting sequence GAAATCAGCCTATGGTTTAAG”: the MYC expression entry in the data set with MYC is “suppresses MYC expression”.
